Experimental data taken from patent US7482008B1, “Human T cell reactive feline protein (TRFP) isolated from house dust and uses therefor” (Merck Patent GmbH, priority 1989, dated 2009).

What was measured:
mice = assay: Biweekly subcutaneous administration, peptide specific antibody in sera; format: in vivo, mouse; conditions: for antibodies specific for peptide (IgG or IgE) in sera: 100 μg s.c. in PBS on days 0, 14, 28 and 56, alone or in combination; for IgG antibodies to peptide, sera dilution: animals injected with the peptides in CFA
Protocol: This animal model experiment was designed to simulate a human treatment protocol such as that described in Example 30. Mice were administered subcutaneous injections of 100 μg peptide/100 μl PBS on days 0, 14, 28 and 56. Mice were administered peptide X or peptide Y either alone or in combination. […] There was no specific binding above background levels for IgG or IgE.

B6CBAF1 mice = assay: Murine T cell response after immunization with peptide YZX, IL-2 production (CTLL-2); format: in vivo, mouse; conditions: mice immunized with 100 μg peptide YZX in CFA; label = antigen in culture
Protocol: 10 B6CBAF1 mice were immunized subcutaneously at the base of the tail and in the thigh region with 100 μg of peptide YZX in complete Freund's adjuvant. After 10 days, the inguinal, paraaortic, and popliteal nodes of the immunized mice were removed and pooled. The lymph node cells were suspended in cold RPMI 1640 with 1% fetal bovine serum (FBS) by passage through stainless steel mesh. The cells were washed 2 times with cold RPMI-1640 containing 1% FBS and maintained at 4° C.
The lymph node cells were plated at 4×10^6 cells/ml in RPMI 1640 with 10% FBS, 250 μg/ml penicillin G, 100 μg/ml streptomycin, and 5×10^−5 M 2-mercaptoethanol. […] After 24 hours, 50 μl of supernatant was removed from each culture and frozen overnight to eliminate live cell carryover. The supernatant was warmed to […] and washed. CTLL-2 indicator cells (ATCC # T1B 214) were added (5×10^3 cells/well). This indicator cell line requires IL-2 for continued growth. After 24 hours, H^3-thymidine (1 μCi/well) was added and the cells were further incubated for 4 hours. The plates were frozen and thawed, harvested on a Tomtec 96 well harvester (Tomtec, Orange, Conn.), and counted on a Betaplate beta counter (Pharmacia, Gaithersburg, Md.).

human IgE = assay: ELISA of human IgE binding, plasma from patient #669; conditions: patient #669 plasma
Protocol: Corning assay plates (#25882-96) were coated with 10 μg/ml of each coating antigen (i.e., TRFP, chain 1 (recombinant chain 1 of TRFP), chain 2 (recombinant chain 2 of TRFP), peptide XYZ, peptide XZY, peptide YXZ, peptide YZX, peptide ZXY and peptide ZYX) listed in FIG. 34 at 50 μl/well and incubated overnight at 4° C. The coating antigens were removed and the wells were blocked with 0.5% gelatin in PBS, 200 μl/well for 2 hours at room temperature. Plasma from patient #669 was serially diluted with PBS-Tween 20 (PBS with 0.05% nonionic detergent Tween-20 Sigma, St. Louis Mo.) and 100 μl/well was added and incubated overnight at 4° C. (plasma dilutions are tested in duplicate). The second antibody (biotinylated goat anti-Human IgE, 1:1000, Kirkegaard & Perry Laboratories Inc. Gaithersburg, Md.), was added at 100 μl/well for one hour at room temperature. This solution was removed and streptavidin-HRPO, 1:10,000 (Southern Biotechnology Associates, Inc., Birmingham, Ala.) was then added at 100 μl/well for one hour at room temperature (all wells were washed three times with PBS-Tween between each incubation step). TMB Membrane Peroxidase Substrate system (Kirkegaard & Perry Laboratories) was freshly mixed, and added at 100 μl/well. The color was allowed to develop for 2-5 minutes. The reaction was stopped by the addition of 100 μl/well of 1M phosphoric acid. Plates were read on a Microplate EL 310 Autoreader (Biotek Instruments, Winooski, Vt.) with a 450 nm filter. The absorbance levels of duplicate wells were averaged.

Row | IgE binding, ELISA (human IgE) | Substance | antibodies specific for peptide (IgG or IgE) in sera (mice) | IgG antibodies to peptide, sera dilution (mice) | T cell response of pooled lymph node cells (IL-2 production) (B6CBAF1 mice)
1 | – | peptide X: amino acid residues 7-30 from chain 1 of TRFP (SEQ. ID. NO: 17); Table 2 lists Fel 8-3 as 7-33 (KRDVDLFLTGTPDEYVEQVAQYKALPV) | no antibodies specific for either peptide | 1/4500 | significant response
2 | – | peptide Y: amino acid residues 29-55 from chain 1 of TRFP (SEQ. ID. NO: 18) (KALPVVLENARILKNCVDAKMTEEDKE) | no antibodies specific for either peptide | 1/4500 | significant response
3 | high level of IgE binding | TRFP: human T cell reactive feline protein affinity purified from house dust; two covalently linked chains | – | – | –
4 | somewhat lower binding | recombinant chain 1: recombinant TRFP chain 1 expressed in E. coli | – | – | –
